Data: patent US8445006B2, “Biomolecular coating for implants” (Georgia Tech Research Corporation, priority 2006, dated 2013)

Columns and labels:
[1] = system: bone marrow stromal cells; experiment: Centrifugation cell adhesion assay on poly(OEGMA) brush titanium surfaces; assay type: cell-based, rat; settings: poly(OEGMA) brushes, 0.9 pmol/cm^2 ligand; for cell adhesion, no antibody: serum exposure
Procedure: Cell adhesion to functionalized and untreated titanium surfaces was measured using a centrifugation assay that applies controlled detachment forces. […] Control titanium slides were coated with 10% FBS (to model serum protein adsorption) or blocking buffer (5% non-fat dry milk in PBS to produce a non adhesive support). Stromal cells were loaded with the fluorescent dye calcein-AM (2 μg/ml, Molecular Probes), detached using trypsin+EDTA, and resuspended serum-free in PBS with 2 mM dextrose. Cells were seeded onto the substrates (10,000 cells/well) for 1 h at 37° C. […] After filling the wells with PBS/dextrose and sealing with transparent adhesive tape, substrates were inverted and spun at a fixed speed in a centrifuge (Beckman Allegra 6, GH 3.8 rotor) to apply a centrifugal force corresponding to 12 g. After centrifugation, media was exchanged and fluorescence intensity was read to measure remaining adherent cells. For each well, adherent cell fraction was calculated as the ratio of post-spin to pre-spin fluorescence readings.
In vitro evaluation of these engineered titanium surfaces was performed using primary rat bone marrow stromal cells since this heterogeneous population contains osteoprogenitors, and human bone marrow stromal cells are currently used in clinical applications. Cell adhesion was examined using a centrifugation assay that applies a controlled detachment force. […] As a complementary test of integrin specificity, integrin binding was quantified using a biochemical cross-linking/extraction/reversal technique.

[2] = system: rat tibia cortical bone; experiment: Rat tibia cortical bone implantation, pull-out mechanical testing; assay type: in vivo
Procedure: (§1) Commercially pure titanium implants (FIG. 4) were sonicated in de-ionized water for 20 min to remove surface debris. Implants were then dipped in 4% HF for 30 sec to remove the existing oxide layer and then incubated in 35% HNO3 for 30 min at 50° C. to regenerate a new oxide coating. Samples were transferred to 1.8 N NaOH for 1 min to terminate the oxidation reaction. Implants were then rinsed and boiled in de-ionized water for 1 h. To create the bioactive coating, the implants were incubated in 20 μg/ml GFOGER peptide (SEQ ID NO:1) or type I collagen solution for 1 h. Control titanium rods were incubated in PBS.
(§2) Implantations were conducted in accordance with an IACUC-approved protocol. Both hind legs of anesthetized, mature Sprague-Dawley male rats (250-350 g) were shaved and scrubbed with alcohol. The medial aspect of the proximal tibial metaphysis was exposed through an antero-medial skin incision, leaving the medial collateral ligament intact. Using a saline-cooled drill, two defects were created in each tibia. Sterile implant rods were press fit into the defects. Periosteum was mobilized and sutured over the implantation site, and the skin was closed with wound clips. Subjects were euthanized after 4 weeks and proximal tibiae were fixed in neutral buffered formalin for histology or recovered without fixation and maintained in PBS-moistened gauze for immediate mechanical testing.
(§3) To evaluate the performance of the bioactive GFOGER peptide (SEQ ID NO:1) treatment in vivo, osseointegration in a rat tibia cortical bone model was quantified using quantitative histomorphometry and pull-out mechanical testing. A cylindrical titanium implant rod with a tapered stop collar was designed (FIG. 4). The tapered head ensures that all implants are inserted into the bone at the same depth, guaranteeing uniform bone contact among treatments. Using a saline-cooled drill, two defects 2 mm in diameter were created in the medial aspect of the proximal tibial metaphysis. Implant rods consisting of GFOGER peptide (SEQ ID NO:1) functionalized or untreated (control) titanium were press fit into the cortical defects. After four weeks, the rat tibiae were harvested and evaluated for bone apposition by histological staining and mechanical integration by pull-out testing. […] Representative micrographs show 50-80 μm longitudinal ground sections of rat tibia stained with Sanderson's Rapid Bone Stain™ and van Gieson counterstain. Cells stain dark to light blue, soft tissue elements stain blue-green, and bone matrix stains yellow orange to autumn orange.
(§4) Osseointegration of implants in a rat tibia cortical bone model was quantified to evaluate the in vivo performance of the engineered titanium surfaces in bone healing. Importantly, this in vivo model provides a rigorous platform to evaluate implant coating function in a relevant orthopaedic setting. Two 2.0-mm diameter defects were drilled into the medial aspect of the proximal tibial metaphysis using a saline cooled drill. Tapered cylindrical implants (FIG. 4) of clinical-grade titanium were press-fit into the cortical defects.

[3] = system: bone marrow stromal cells; experiment: Osteoblast-specific gene expression by qRT-PCR; assay type: cell-based, rat
Procedure: Primary bone marrow stromal cells were harvested from the femora of young adult male Wistar rats in accordance with an IACUC-approved protocol. After excision, hindleg femora and tibiae were cleared of soft tissue and rinsed in growth medium (α-minimal essential medium supplemented with 10% fetal bovine serum, 1% penicillin-streptomycin, and 0.3 μg/ml amphotericin B). The ends of the long bones were then removed and the marrow space was flushed with culture medium (3-5 ml), using a syringe with an 18-gauge needle. Marrow isolates were pooled, centrifuged, resuspended in growth medium, and seeded for adhesion-dependent selection on tissue culture polystyrene dishes. Non-adherent hematopoietic cells were removed during subsequent medium exchanges, which occurred every other day. Cells were subcultured every two days according to standard techniques. For in vitro osteogenic assays, cells were seeded at 10,000 cells/cm^2 in growth medium. After 24 h, cultures were maintained in osteogenic medium consisting of growth medium supplemented with 50 μg/ml L-ascorbic acid and 3 mM sodium β-glycerophosphate.
Gene expression was analyzed by qRT-PCR. Total RNA was isolated at 7 days in culture using the Qiagen RNeasy RNA isolation kit. During RNA isolation and purification, samples were treated with DNaseI (27 Kunitz units/sample) for 15 min at room temperature to eliminate any genomic DNA contamination. The concentration of purified RNA was quantified using a NanoDrop™ (NanoDrop Technologies) and 1 μg of total RNA was used to synthesize cDNA templates by oligo(dT) priming using the Superscript First-Strand cDNA Synthesis System™.
qRT-PCR was performed with the ABI Prism 7700 Sequence Detection System (Applied Biosystems; 40 cycles; melting for 15 s at 95° C.; annealing and extending for 60 s at 60° C.) using SYBR Green DNA intercalating dye. Gene transcript concentration in the sample cDNA template solutions was quantified by preparing a functional range of dilutions from an absolute standard for each gene. Linear standard curves were then generated by plotting the log of the known concentration versus the CT value (the cycle number at which the fluorescence reached a threshold level). Oligonucleotide primers (Table 1) were designed using Primer Express™ software (Applied Biosystems).

[4] = system: rat tibia cortical bone; experiment: Rat tibia cortical bone implantation, histology and bone-implant contact histomorphometry; assay type: in vivo; settings: 4 weeks; for histology: bone matrix around implants: poly(OEGMA) brush implants, 0.9 pmol/cm^2
Procedure: as §1, §2
Excised tibiae were fixed in 10% neutral buffered formalin for 1 week. […] Ground sections of 50-80 μm were generated using the Exakt Grinding System™. Two longitudinal ground sections were generated per tibia, each containing two titanium plugs inserted transverse to the tibia's long axis. Sections were then stained with Sanderson's Rapid Bone Stain™ and a van Gieson counter stain. Bone implant contact (BIC) was measured as the percentage of implant's circumference that was in direct contact with bone tissue (Adobe Photoshop® CS imaging software).
as §3, §4

[5] = 4 weeks, tethered brushes 0.9 pmol/cm^2
[6] = 7-day cultures, tethered brushes vs RGD supports
[7] = 7 day cultures, adsorbed coating vs untreated titanium

FNIII7-10: monobiotinylated recombinant fibronectin fragment spanning the 7-10th type III repeats of fibronectin; α5β1 integrin ligand
cell adhesion with anti-αv antibody [1]: had no effect | cell adhesion with blocking anti-α5 antibody [1]: completely eliminated cell adhesion | cell adhesion, no antibody [1]: high levels of cell adhesion | mechanical fixation vs unmodified titanium ([2]; 4 weeks, tethered brushes): higher mechanical fixation | enhancement in fixation over RGD-tethered implants [2, 5]: 2.9 fold | improvement in fixation compared to unmodified poly(OEGMA) brush coating [2, 5]: ~4 fold | dependence of mechanical fixation on tethered surface density ([2]; varying tethered densities, hyperbolic relationship R^2=0.87): increased with FNIII7-10 surface density | bone sialoprotein (BSP) transcript levels [3, 6]: increased transcript levels | osteocalcin (OCN) transcript levels [3, 6]: increased transcript levels | Runx2/Cbfa1 expression levels ([3]; 7-day cultures, tethered brushes vs equimolar RGD brushes): elevated | bone-implant apposition ([4]; passively coated (20 μg/ml) vs unmodified titanium or pFN-coated): enhanced bone-implant apposition | histology: bone matrix around implants [4]: extensive and contiguous bone matrix | bone-implant contact area vs unmodified titanium implant ([4]; tethered brush implants): significantly higher

GGYGGGPC(GPP)5GFOGER(GPP)5GPC [GFOGER peptide]
mechanical fixation (pull-out force) ([2]; 4 weeks, vs type I collagen or untreated titanium): significantly higher mechanical fixation | Runx2/Cbfa1 expression levels [3, 7]: elevated | bone sialoprotein gene expression [3, 7]: greater levels of gene expression | osteocalcin gene expression [3, 7]: greater levels of gene expression | bone apposition (bone implant contact, BIC) ([4]; passively coated implants vs untreated titanium): nearly two-fold enhancement | histology: peri-implant bone mineral ([4]; passively coated titanium implants (20 μg/ml)): substantial and contiguous bone mineral

GRGDSPC [RGD peptide, linear RGD oligopeptide purchased from BACHEM; primarily supports αvβ3-mediated adhesion, reference compound]
cell adhesion with anti-αv antibody [1]: eliminated adhesion | cell adhesion, no antibody [1]: high levels of cell adhesion | bone apposition and mechanical fixation among brush implant groups ([2]; 4 weeks, poly(OEGMA) brush implants): no differences in bone apposition or mechanical fixation | any differentiation marker vs serum-exposed unmodified titanium ([3]; tethered brushes): No differences were observed | histology: bone matrix around implants [4]: Less bone tissue was observed
